Experiments:
GenQ (VM_GenQ) = target: T1, GenQ (VM_GenQ) (Micromonospora echinospora, UniProt Q70KE0); assay: LC-ESI-MS, […]'-dehydrogenation; type: biochemical; conditions: 200 uM substrate, 16 uM enzyme, Tris-HCl pH 8.0, 30 °C overnight
T1 construct: gene gacJ; full length with 38 extra N-terminal residues absent in original annotation; N-His6 tag, pET28a(+), E. coli BL21(DE3); contains FAD

GenB1 [1] = target: T2, GenB1 (Micromonospora echinospora, UniProt Q70KD9); assay: LC-ESI-MS, GenQ-coupled transamination; type: biochemical; conditions: amino donor 2 mM; 6'-DOG made in situ from 200 uM G418 by 16 uM GenQ; 20 uM GenB1; Tris-HCl pH 8.0, 30 °C
T2 construct: gene gacK; N-His6-tagged, pET28a(+), E. coli BL21(DE3); contains PLP

GenB2 [2] = target: T3, GenB2 (Micromonospora echinospora, UniProt Q70KE6); assay: LC-ESI-MS, […]'-epimerization; type: biochemical; conditions: 200 uM substrate, 20 uM enzyme, Tris-HCl pH 8.0, 30 °C overnight; reversible
T3 construct: gene gacE; N-His6-tagged, pET28a(+), E. coli BL21(DE3); contains PLP

GenB1 [3] = target: T2, GenB1; assay: UV-visible absorption spectrum; type: binding; conditions: co-purified cofactor
GenB2 [4] = target: T3, GenB2; assay: UV-visible absorption spectrum; type: binding; conditions: co-purified cofactor
GenB3 = target: T4, GenB3 (Micromonospora echinospora, UniProt Q2MG50); assay: UV-visible absorption spectrum; type: binding; conditions: co-purified cofactor
T4 construct: N-His6-tagged, pET28a(+), E. coli BL21(DE3); contains PLP

GenB4 = target: T5, GenB4 (Micromonospora echinospora, UniProt Q6QVT7); assay: UV-visible absorption spectrum; type: binding; conditions: co-purified cofactor
T5 construct: gene gntH; N-His6-tagged, pET28a(+), E. coli BL21(DE3); contains PLP
T5 sequence (Q6QVT7 entry or part of it): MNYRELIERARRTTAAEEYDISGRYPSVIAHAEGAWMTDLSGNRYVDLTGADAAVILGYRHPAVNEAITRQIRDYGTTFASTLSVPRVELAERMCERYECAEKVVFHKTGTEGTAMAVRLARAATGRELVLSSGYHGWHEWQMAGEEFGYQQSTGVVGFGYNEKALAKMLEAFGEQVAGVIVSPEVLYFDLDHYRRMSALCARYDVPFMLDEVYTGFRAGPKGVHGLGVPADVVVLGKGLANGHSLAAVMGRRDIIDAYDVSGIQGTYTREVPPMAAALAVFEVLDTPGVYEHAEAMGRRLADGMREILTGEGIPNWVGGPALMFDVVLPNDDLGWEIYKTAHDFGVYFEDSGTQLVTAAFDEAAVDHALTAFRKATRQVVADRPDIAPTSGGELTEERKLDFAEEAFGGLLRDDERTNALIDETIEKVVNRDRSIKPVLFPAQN

T3 sequence (Q70KE6 entry or part of it): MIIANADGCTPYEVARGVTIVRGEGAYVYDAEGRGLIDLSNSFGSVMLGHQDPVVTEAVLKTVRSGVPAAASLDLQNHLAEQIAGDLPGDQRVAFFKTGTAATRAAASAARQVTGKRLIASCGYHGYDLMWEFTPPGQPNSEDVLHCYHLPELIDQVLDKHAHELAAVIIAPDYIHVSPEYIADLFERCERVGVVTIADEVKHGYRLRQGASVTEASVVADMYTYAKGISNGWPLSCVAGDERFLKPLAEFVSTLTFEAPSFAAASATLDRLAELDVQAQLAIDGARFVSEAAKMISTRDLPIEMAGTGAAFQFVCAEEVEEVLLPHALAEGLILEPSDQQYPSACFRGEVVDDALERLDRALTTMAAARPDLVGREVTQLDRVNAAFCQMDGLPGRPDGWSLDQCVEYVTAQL
T2 sequence (Q70KD9 entry or part of it): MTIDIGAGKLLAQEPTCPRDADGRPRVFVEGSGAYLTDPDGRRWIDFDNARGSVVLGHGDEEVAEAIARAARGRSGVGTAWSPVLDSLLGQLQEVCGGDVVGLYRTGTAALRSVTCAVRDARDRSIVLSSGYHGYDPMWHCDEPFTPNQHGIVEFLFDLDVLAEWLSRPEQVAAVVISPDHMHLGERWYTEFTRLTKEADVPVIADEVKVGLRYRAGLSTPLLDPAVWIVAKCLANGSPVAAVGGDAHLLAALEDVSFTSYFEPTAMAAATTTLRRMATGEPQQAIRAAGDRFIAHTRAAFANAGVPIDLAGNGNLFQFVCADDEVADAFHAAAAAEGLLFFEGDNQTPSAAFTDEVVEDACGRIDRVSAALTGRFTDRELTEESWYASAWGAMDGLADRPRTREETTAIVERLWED
T1 sequence (Q70KE0 entry or part of it): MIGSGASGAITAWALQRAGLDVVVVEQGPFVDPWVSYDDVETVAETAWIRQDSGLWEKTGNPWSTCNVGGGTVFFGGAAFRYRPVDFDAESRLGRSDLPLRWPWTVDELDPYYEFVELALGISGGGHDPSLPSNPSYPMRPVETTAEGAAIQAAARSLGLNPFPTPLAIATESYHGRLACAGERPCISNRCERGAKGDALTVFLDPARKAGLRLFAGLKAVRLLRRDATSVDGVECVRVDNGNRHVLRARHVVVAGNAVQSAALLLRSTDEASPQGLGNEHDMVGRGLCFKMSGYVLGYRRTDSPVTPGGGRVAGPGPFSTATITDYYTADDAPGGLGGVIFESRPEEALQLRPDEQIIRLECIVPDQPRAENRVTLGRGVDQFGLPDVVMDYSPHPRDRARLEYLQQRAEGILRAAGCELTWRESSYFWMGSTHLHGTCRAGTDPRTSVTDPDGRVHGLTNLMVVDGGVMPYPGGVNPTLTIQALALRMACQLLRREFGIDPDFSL
T4 sequence (Q2MG50 entry or part of it): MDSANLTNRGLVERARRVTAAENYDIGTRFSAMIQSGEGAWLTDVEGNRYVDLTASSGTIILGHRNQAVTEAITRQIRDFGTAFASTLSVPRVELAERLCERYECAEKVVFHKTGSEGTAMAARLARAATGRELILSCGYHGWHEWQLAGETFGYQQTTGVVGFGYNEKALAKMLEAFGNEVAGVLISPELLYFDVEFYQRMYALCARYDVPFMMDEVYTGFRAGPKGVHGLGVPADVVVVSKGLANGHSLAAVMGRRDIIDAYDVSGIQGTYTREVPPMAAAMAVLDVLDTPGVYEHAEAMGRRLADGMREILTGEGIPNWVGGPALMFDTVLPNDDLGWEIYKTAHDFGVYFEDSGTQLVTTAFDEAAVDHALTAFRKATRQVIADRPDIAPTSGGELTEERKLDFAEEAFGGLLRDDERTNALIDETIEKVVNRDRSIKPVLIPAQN

SMILES: CN[C@@H]1[C@@H](O)[C@@H](O[C@@H]2[C@@H](O)[C@H](O[C@H]3O[C@H](CO)[C@@H](O)[C@H](O)[C@H]3N)[C@@H](N)C[C@H]2N)OC[C@]1(C)O (stereo in doubt) [gentamicin X2]
- LC-ESI-MS, 6'-dehydrogenation (GenQ (VM_GenQ)): GenQ also showed activity with X2 as the substrate

SMILES: CSCC[C@H](N)C(=O)O [L-methionine]
- LC-ESI-MS, GenQ-coupled transamination (GenB1 [1]): conversion of G418 to JI-20B, with L-methionine as the most effective amino donor

SMILES: CN[C@@H]1[C@@H](O)[C@@H](O[C@@H]2[C@@H](O)[C@H](O[C@H]3O[C@H]([C@@H](C)N)CC[C@H]3N)[C@@H](N)C[C@H]2N)OC[C@]1(C)O [gentamicin C2]
- LC-ESI-MS, 6'-epimerization (GenB2 [2]): GenB2 did catalyze the epimerization of C2

SMILES: CN[C@@H]1[C@@H](O)[C@@H](O[C@@H]2[C@@H](O)[C@H](O[C@H]3O[C@H]([C@H](C)N)CC[C@H]3N)[C@@H](N)C[C@H]2N)OC[C@]1(C)O [gentamicin C2a]
- LC-ESI-MS, 6'-epimerization (GenB2 [2]): when C2a was used as the substrate the reverse reaction was also detected

SMILES: Cc1ncc(COP(=O)(O)O)c(C=O)c1O [pyridoxal-5′-phosphate]
- UV-visible absorption spectrum (GenB1 [3]): UV-visible absorption spectra typical of aminotransferases containing bound pyridoxal-5′-phosphate cofactor
- UV-visible absorption spectrum (GenB2 [4]): UV-visible absorption spectra typical of aminotransferases containing bound pyridoxal-5′-phosphate cofactor
- UV-visible absorption spectrum (GenB3): UV-visible absorption spectra typical of aminotransferases containing bound pyridoxal-5′-phosphate cofactor
- UV-visible absorption spectrum (GenB4): UV-visible absorption spectra typical of aminotransferases containing bound pyridoxal-5′-phosphate cofactor

Source: paper PMC4039129, “Specificity and Promiscuity at the Branch Point in Gentamicin Biosynthesis” (Chemistry & Biology, 2014)
